We go through nine compounds from PubChem BioAssay (NCI).

Some test systems named below: ACHN renal; CAKI-1 renal; DU-145 prostate; K-562 leukemia; M14 melanoma; MALME-3M melanoma; NCI/ADR-RES ovarian; PC-3 prostate; SF-295 CNS; T-47D breast.
Holding throughout (test): NCI anticancer screen, dose series, 48 h

Structures are written as SMILES. “And” between values parts separate entries of the source, which are not always exact repeats. Identical values can stand only once.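 Each compound was tested at five concentrations against cells in 96-well plates for 48 hours. Here, GI50 denotes the concentration required for 50% inhibition of growth. TGI: total growth inhibition.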

Consider `COc1ccc(OC)c(-c2nc3sccn3c2/C=C2/C(=O)Nc3ccc(Cl)cc32)c1`, for which the GI50 is 30.8 µM in the assay on ACHN renal; 30.1 µM in the assay on CAKI-1 renal; 41.3 µM in the assay with DU-145 prostate; 29.9 µM in the assay with K-562 leukemia; 23.1 µM in the assay with M14 melanoma; 30.8 µM in the assay with MALME-3M melanoma. In addition, the GI50 with NCI/ADR-RES ovarian was 25.6 µM; in the assay with PC-3 prostate, 27.2 µM; with SF-295 CNS, 19.4 µM; with T-47D breast it was 26.6 µM. Moreover, the TGI in the assay on ACHN renal was greater than 100 µM; with CAKI-1 renal, greater than 100 µM; in the assay on DU-145 prostate, greater than 100 µM; in the assay on K-562 leukemia, greater than 100 µM; with M14 melanoma, 53.8 µM; in the assay with MALME-3M melanoma it was 80.8 µM. The TGI in the assay on NCI/ADR-RES ovarian was 89.8 µM; in the assay on PC-3 prostate, greater than 100 µM; in the assay on SF-295 CNS, 51.5 µM; in the assay with T-47D breast, 70.1 µM.

For the compound `O=C(c1ccccc1Nc1ccnc(C(F)(F)F)c1)N1CCN(c2cccc(Cl)c2)CC1`, the GI50 in the assay on ACHN renal is 22.9 µM; in the assay on CAKI-1 renal, 21 µM; in the assay with DU-145 prostate it was 28.1 µM; in the assay with K-562 leukemia, 19.2 µM; with M14 melanoma it was 21.4 µM; with MALME-3M melanoma it was 23.1 µM. For the same compound, the GI50 with NCI/ADR-RES ovarian was 16.2 µM; with PC-3 prostate it was 9.45 µM; with SF-295 CNS it was 16.5 µM; in the assay on T-47D breast it was 10.7 µM. Further, the TGI is 86.1 µM with ACHN renal; 75 µM in the assay with CAKI-1 renal; greater than 100 µM in the assay with DU-145 prostate; greater than 100 µM in the assay on K-562 leukemia; greater than 74.3 µM in the assay with M14 melanoma; 69.3 µM with MALME-3M melanoma. The TGI in the assay with NCI/ADR-RES ovarian was found to be 59.5 µM; in the assay with PC-3 prostate, 53 µM; in the assay on SF-295 CNS it was 65.6 µM; with T-47D breast, 74.4 µM.

In the case of `CCOC1OCCCC1Br` (stereo not given), the TGI with ACHN renal, with CAKI-1 renal, in the assay with DU-145 prostate, in the assay on K-562 leukemia, in the assay with M14 melanoma and in the assay on MALME-3M melanoma was greater than 100 µM throughout. Further, the TGI in the assay with NCI/ADR-RES ovarian, with PC-3 prostate, in the assay with SF-295 CNS and with T-47D breast was greater than 100 µM in each case.

With `CC1(C)CCC[C@]23C(=O)O[C@](O)(C(=O)C4=C[C@@](C)(/C=C/CCCc5ccc6ccc7cccc8ccc5c6c78)CC[C@@]42O)[C@@H]13`, the GI50 was 0.156 µM in the assay with ACHN renal; 0.183 µM in the assay with CAKI-1 renal; 0.179 µM in the assay on DU-145 prostate; 0.3 µM in the assay with K-562 leukemia; 0.196 µM in the assay with M14 melanoma; 0.177 µM in the assay with MALME-3M melanoma. Moreover, the GI50 with NCI/ADR-RES ovarian was 0.221 µM; in the assay with PC-3 prostate, 0.166 µM; with SF-295 CNS, 0.178 µM; in the assay with T-47D breast, 0.167 µM. The TGI in the assay with ACHN renal was found to be 0.29 µM; in the assay with CAKI-1 renal, 0.364 µM; in the assay with DU-145 prostate, 0.326 µM; in the assay with K-562 leukemia it was 3.19 µM; in the assay with M14 melanoma, 0.409 µM; in the assay on MALME-3M melanoma it was 0.332 µM. Besides, the TGI worked out at 0.532 µM in the assay on NCI/ADR-RES ovarian, 0.378 µM in the assay with PC-3 prostate, 0.336 µM in the assay with SF-295 CNS and 0.422 µM in the assay on T-47D breast.

For `COc1ccc(-c2ccc(/C=C/C(=O)NO)cc2)cc1`, the GI50 in the assay with ACHN renal is 1.07 µM; with CAKI-1 renal, 1.42 µM; in the assay with DU-145 prostate it was 0.394 µM; in the assay on K-562 leukemia it was 2.39 µM; with M14 melanoma, 1.45 µM; in the assay with MALME-3M melanoma it was 0.65 µM. Further, the GI50 in the assay with NCI/ADR-RES ovarian was 0.533 µM; in the assay with PC-3 prostate, 1.09 µM; with SF-295 CNS, 0.23 µM; with T-47D breast it was 1.47 µM. In addition, the TGI in the assay with ACHN renal was 4.48 µM; in the assay with CAKI-1 renal, 6.11 µM; in the assay with DU-145 prostate it was 4.45 µM; with K-562 leukemia, greater than 100 µM; in the assay with M14 melanoma it was 7.64 µM; with MALME-3M melanoma, 11.8 µM. For the same compound, the TGI with NCI/ADR-RES ovarian amounted to 3.22 µM; with PC-3 prostate, 12.3 µM; in the assay on SF-295 CNS, 2.01 µM; in the assay on T-47D breast, 5.58 µM.

With `O=c1[nH]cc(CS(=O)(=O)Cc2c[nH]c(=O)[nH]c2=O)c(=O)[nH]1`, the TGI in the assay on ACHN renal, in the assay on CAKI-1 renal, with DU-145 prostate, in the assay with K-562 leukemia, in the assay on M14 melanoma and in the assay on MALME-3M melanoma was greater than 100 µM in each case. Also, the TGI with NCI/ADR-RES ovarian, in the assay on PC-3 prostate, with SF-295 CNS and in the assay with T-47D breast was greater than 100 µM in each case.

As to `O=C1c2ccccc2C(=O)c2c(NCCCNCCO)ccc(NCCCNCCO)c21`, the TGI amounted to 25.5 µM in the assay with ACHN renal; 98.2 µM in the assay on CAKI-1 renal; 35.8 µM with DU-145 prostate; 13.9 µM in the assay with K-562 leukemia; 25.5 µM in the assay with M14 melanoma; 27.9 µM in the assay with MALME-3M melanoma. Also, the TGI was greater than 100 µM in the assay with NCI/ADR-RES ovarian, 22.6 µM with PC-3 prostate, 31.9 µM with SF-295 CNS and 68.2 µM in the assay with T-47D breast.

With `CCN1CCN(c2nc(NNC(=O)Cc3ccccc3)nc(N3CCN(C(c4ccccc4)c4ccccc4)CC3)n2)CC1`, the GI50 was 1.65 µM in the assay with ACHN renal; 1.7 µM in the assay on CAKI-1 renal; 2.73 µM in the assay with DU-145 prostate; 1.8 µM in the assay with K-562 leukemia; 1.83 µM in the assay on M14 melanoma; 1.64 µM with MALME-3M melanoma. Besides, the GI50 in the assay on NCI/ADR-RES ovarian is 3.37 µM; in the assay with PC-3 prostate, 2.51 µM; in the assay with SF-295 CNS, 2.01 µM; with T-47D breast, 1.85 µM. In addition, the TGI in the assay on ACHN renal was 3.07 µM; with CAKI-1 renal, 3.31 µM; in the assay with DU-145 prostate, 7.2 µM; in the assay with K-562 leukemia it was 4.38 µM; in the assay on M14 melanoma, 3.41 µM; in the assay with MALME-3M melanoma, 3.29 µM. Moreover, the TGI in the assay on NCI/ADR-RES ovarian was determined as 14 µM; with PC-3 prostate, 8.61 µM; with SF-295 CNS, 3.99 µM; in the assay on T-47D breast, 4.8 µM.

For `CCCS(=O)(=O)Nc1ccc(F)c(C(=O)c2c[nH]c3ncc(-c4ccc(Cl)cc4)cc23)c1F`, the GI50 in the assay on ACHN renal was 3.92 µM and 4.77 µM; with CAKI-1 renal it was 2.63 µM and 2.81 µM; with DU-145 prostate, 5.62 µM and 7.49 µM; with K-562 leukemia it was 4.32 µM and > 8.72 µM; with M14 melanoma it was 0.0403 µM and 0.0413 µM; in the assay on MALME-3M melanoma it was 0.0161 µM and 0.0331 µM. For the same compound, the GI50 in the assay with NCI/ADR-RES ovarian is 6.75 µM and > 10 µM; in the assay with PC-3 prostate it was 2.98 µM and 6.01 µM; with SF-295 CNS, 2.62 µM and 3.17 µM; in the assay with T-47D breast, 5.34 µM and 5.13 µM. In addition, the TGI in the assay on ACHN renal is 15.9 µM and > 10 µM; in the assay on CAKI-1 renal it was 16.5 µM and > 10 µM; in the assay on DU-145 prostate, 19.7 µM and > 10 µM; with K-562 leukemia, 19.6 µM and > 10 µM; in the assay with M14 melanoma it was 1.34 µM and 2.21 µM; in the assay with MALME-3M melanoma, 0.0772 µM. Further, the TGI with NCI/ADR-RES ovarian was 31.6 µM and > 10 µM; with PC-3 prostate, 16.7 µM and > 10 µM; with SF-295 CNS, 11.5 µM and > 10 µM; in the assay on T-47D breast, 24.8 µM and > 10 µM.
